Data as given in patent publication US12187723B2 (BRISTOL-MYERS SQUIBB COMPANY, priority 2019, dated 2025).

Legend:
human TLR8 = target: T1, human TLR8 (Homo sapiens, UniProt Q9NR97); assay: TLR8 inhibition reporter assay (HEK-Blue SEAP); type: cell-based; details: HEK-Blue cells overexpressing human TLR8, R848 15.9 μM, 22 hour incubation
T1 construct: host or cells: HEK-Blue cells
T1 sequence (Q9NR97 27-1041): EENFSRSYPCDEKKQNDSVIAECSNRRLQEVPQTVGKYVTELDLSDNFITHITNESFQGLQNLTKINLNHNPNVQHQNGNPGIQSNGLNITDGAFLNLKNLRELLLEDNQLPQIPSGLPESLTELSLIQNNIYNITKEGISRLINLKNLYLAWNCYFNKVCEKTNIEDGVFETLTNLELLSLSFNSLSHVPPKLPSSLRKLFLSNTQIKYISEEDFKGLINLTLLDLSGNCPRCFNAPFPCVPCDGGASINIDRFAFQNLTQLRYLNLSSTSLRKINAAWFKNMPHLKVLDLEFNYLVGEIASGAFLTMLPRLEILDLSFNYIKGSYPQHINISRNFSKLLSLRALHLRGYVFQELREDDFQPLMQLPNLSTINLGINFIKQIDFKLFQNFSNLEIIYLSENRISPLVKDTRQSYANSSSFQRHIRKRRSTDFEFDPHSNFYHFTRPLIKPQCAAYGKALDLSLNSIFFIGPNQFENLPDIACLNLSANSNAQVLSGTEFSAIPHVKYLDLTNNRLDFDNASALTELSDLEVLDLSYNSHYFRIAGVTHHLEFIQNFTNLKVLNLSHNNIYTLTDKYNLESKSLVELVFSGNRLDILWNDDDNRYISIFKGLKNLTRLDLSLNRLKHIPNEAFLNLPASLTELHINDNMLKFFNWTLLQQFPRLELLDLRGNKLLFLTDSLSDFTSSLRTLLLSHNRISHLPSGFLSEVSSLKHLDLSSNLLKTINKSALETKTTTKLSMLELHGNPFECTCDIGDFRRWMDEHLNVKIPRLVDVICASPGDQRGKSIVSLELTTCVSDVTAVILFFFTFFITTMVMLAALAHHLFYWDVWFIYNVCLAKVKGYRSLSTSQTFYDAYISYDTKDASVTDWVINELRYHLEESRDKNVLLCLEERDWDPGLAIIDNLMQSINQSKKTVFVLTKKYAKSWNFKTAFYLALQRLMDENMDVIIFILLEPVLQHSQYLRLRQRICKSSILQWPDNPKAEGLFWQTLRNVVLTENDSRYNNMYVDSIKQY
In short: (§1)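 Agonists used: gardiquimod 7.5 μM (TLR7), R848 15.9 μM (TLR8), ODN2006 5 nM (TLR9), added after 30 min room-temperature compound pre-treatment (0.05 nM–50 μM) of receptor-overexpressing HEK-Blue cells. SEAP reporter (NF-κB/AP-1 driven) read after 22 h at 37 °C; inhibition scaled between agonist+DMSO and reference-inhibitor wells.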

human TLR9 = target: T2, human TLR9 (Homo sapiens, UniProt Q9NR96); assay: TLR9 inhibition reporter assay (HEK-Blue SEAP); type: cell-based; details: HEK-Blue cells overexpressing human TLR9, ODN2006 5 nM, 22 hour incubation
T2 construct: host or cells: HEK-Blue cells
T2 sequence (Q9NR96 26-1032): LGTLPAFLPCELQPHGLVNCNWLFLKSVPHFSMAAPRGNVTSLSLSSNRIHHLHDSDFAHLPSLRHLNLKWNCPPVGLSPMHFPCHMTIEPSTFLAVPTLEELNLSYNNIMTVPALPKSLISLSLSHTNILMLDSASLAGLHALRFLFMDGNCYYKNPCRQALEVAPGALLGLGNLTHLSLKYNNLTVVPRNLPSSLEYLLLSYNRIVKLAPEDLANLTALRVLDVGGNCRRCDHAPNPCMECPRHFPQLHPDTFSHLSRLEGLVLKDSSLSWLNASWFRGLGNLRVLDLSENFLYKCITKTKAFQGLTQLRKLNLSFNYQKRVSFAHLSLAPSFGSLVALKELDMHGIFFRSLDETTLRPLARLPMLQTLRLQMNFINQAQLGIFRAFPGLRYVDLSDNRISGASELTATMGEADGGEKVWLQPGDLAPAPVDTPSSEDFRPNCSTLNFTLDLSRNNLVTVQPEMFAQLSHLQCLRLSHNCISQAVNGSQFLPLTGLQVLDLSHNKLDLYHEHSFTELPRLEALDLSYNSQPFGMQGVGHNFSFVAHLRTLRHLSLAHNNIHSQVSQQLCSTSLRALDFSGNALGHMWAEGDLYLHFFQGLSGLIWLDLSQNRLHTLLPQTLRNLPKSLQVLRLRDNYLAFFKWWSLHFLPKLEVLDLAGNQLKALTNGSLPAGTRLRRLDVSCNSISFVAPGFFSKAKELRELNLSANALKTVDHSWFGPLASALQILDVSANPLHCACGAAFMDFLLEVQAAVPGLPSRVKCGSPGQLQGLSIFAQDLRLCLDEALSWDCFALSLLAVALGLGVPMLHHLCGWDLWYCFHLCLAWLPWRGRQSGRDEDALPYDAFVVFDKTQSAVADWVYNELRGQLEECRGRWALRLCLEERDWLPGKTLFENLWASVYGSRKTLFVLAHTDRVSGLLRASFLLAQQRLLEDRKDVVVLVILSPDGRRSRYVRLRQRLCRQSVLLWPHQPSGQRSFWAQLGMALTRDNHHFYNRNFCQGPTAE
In short: as §1

Structure (SMILES) | IC50 (human TLR8) [nM] | IC50 (human TLR9) [nM]
CCC(C)N1CCC[C@@H](n2c(=O)[nH]c3cc(-c4cc(C)c5ncnn5c4)c(C)cc32)C1 (stereo partly drawn) [Example 28, 1-((3R)-1-(sec-butyl)piperidin-3-yl)-6-methyl-5-(8-methyl-[1,2,4]triazolo[1,5-a]pyridin-6-yl)-1,3-dihydro-2H-benzo[d]imidazol-2-one] | 22.5 | 10800
COc1cc(-c2cc3[nH]c(=O)n(C4CCC(N5CCC(S(C)(=O)=O)C5)CC4)c3cc2C(C)C)cn2ncnc12 (single isomer, unassigned) [Example 289, 6-isopropyl-5-(8-methoxy-[1,2,4]triazolo[1,5-a]pyridin-6-yl)-1-(4-(3-(methylsulfonyl)pyrrolidin-1-yl)cyclohexyl)-1,3-dihydro-2H-benzo[d]imidazol-2-one] | 4.44 | > 50000
COc1cc(-c2cc3[nH]c(=O)n(C4CCC(N5CCC(F)(F)CC5)CC4)c3cc2C(C)C)cn2ncnc12 (single isomer, unassigned) [Example 246, 1-(4-(4,4-difluoropiperidin-1-yl)cyclohexyl)-6-isopropyl-5-(8-methoxy-[1,2,4]triazolo[1,5-a]pyridin-6-yl)-1,3-dihydro-2H-benzo[d]imidazol-2-one] | 0.16 | 15500
COc1cc(-c2cc3[nH]c(=O)n(C4CCC(N5CCC(F)(F)C5)CC4)c3cc2C(C)C)cn2ncnc12 (single isomer, unassigned) [Example 294, 1-(4-(3,3-difluoropyrrolidin-1-yl)cyclohexyl)-6-isopropyl-5-(8-methoxy-[1,2,4]triazolo[1,5-a]pyridin-6-yl)-1,3-dihydro-2H-benzo[d]imidazol-2-one] | 3.14 | 35200
COc1c(C)c(-c2cc3[nH]c(=O)n(C4CCC(N5CCC6(CC5)COC6)CC4)c3cc2C(C)C)cn2ncnc12 (single isomer, unassigned) [Example 267, 1-(4-(2-oxa-7-azaspiro[3.5]nonan-7-yl)cyclohexyl)-6-isopropyl-5-(8-methoxy-7-methyl-[1,2,4]triazolo[1,5-a]pyridin-6-yl)-1,3-dihydro-2H-benzo[d]imidazol-2-one] | 0.12 | > 50000

The next lines start with the values.

IC50 (human TLR8) [nM] | IC50 (human TLR9) [nM] | Structure (SMILES)
8.4 | 16200 | COc1cc(-c2cc3[nH]c(=O)n(C4CCC(N5CC(F)(F)C5)CC4)c3cc2C(C)C)cn2ncnc12 (single isomer, unassigned) [Example 297]
3.76 | 3790 | Cc1c(-c2cc3[nH]c(=O)n(C4CCC(N5CC6(COC6)C5)CC4)c3cc2C(C)C)cn2ncnc2c1C (single isomer, unassigned) [Example 298]
